Measured values published in the NIST ThermoML archive (doi:10.1007/s10765-006-0033-6).

Assay: compressibility factor (dimensionless); xn = mol fraction of the nth substance listed
Conditions: Gas, Other PVT measurement

[N-]=[N+]=O [nitrous oxide] + FCF
Conditions	compressibility factor
303.23 K, 131 kPa, x1 = 0.2958	0.9882
303.23 K, 133.7 kPa, x1 = 0.3826	0.9887
303.23 K, 194.9 kPa, x1 = 0.2958	0.9827
303.23 K, 199.1 kPa, x1 = 0.3826	0.9838
303.23 K, 213.1 kPa, x1 = 0.7326	0.9893
303.23 K, 235.1 kPa, x1 = 0.6589	0.9847
303.23 K, 289.2 kPa, x1 = 0.2958	0.9746
303.23 K, 295.5 kPa, x1 = 0.3826	0.9761
303.23 K, 316.4 kPa, x1 = 0.7326	0.9819
303.23 K, 349.2 kPa, x1 = 0.6589	0.9776
303.23 K, 356.8 kPa, x1 = 0.448	0.9708
303.23 K, 427.1 kPa, x1 = 0.2958	0.9622
303.23 K, 436.8 kPa, x1 = 0.3826	0.9645
303.23 K, 468.8 kPa, x1 = 0.7326	0.9723
303.23 K, 516.7 kPa, x1 = 0.6589	0.9669
303.23 K, 526.5 kPa, x1 = 0.448	0.9574
303.23 K, 626.7 kPa, x1 = 0.2958	0.9437
303.23 K, 641.7 kPa, x1 = 0.3826	0.947
303.23 K, 691.2 kPa, x1 = 0.7326	0.9582
303.23 K, 760.2 kPa, x1 = 0.6589	0.9509
303.23 K, 771.2 kPa, x1 = 0.448	0.9375
303.23 K, 910.7 kPa, x1 = 0.2958	0.9166
303.23 K, 933.9 kPa, x1 = 0.3826	0.9213
303.23 K, 1012.1 kPa, x1 = 0.7326	0.9378
303.23 K, 1108.8 kPa, x1 = 0.6589	0.927
303.23 K, 1117.6 kPa, x1 = 0.448	0.9081
303.23 K, 1303.4 kPa, x1 = 0.2958	0.8768
303.23 K, 1340.2 kPa, x1 = 0.3826	0.8837
303.23 K, 1465.6 kPa, x1 = 0.7326	0.9077
303.23 K, 1593.4 kPa, x1 = 0.448	0.8653
303.23 K, 1596.2 kPa, x1 = 0.6589	0.892
303.23 K, 1822 kPa, x1 = 0.2958	0.8193
303.23 K, 1881.5 kPa, x1 = 0.3826	0.8292
303.23 K, 2086.1 kPa, x1 = 0.7326	0.8636
303.23 K, 2214.2 kPa, x1 = 0.448	0.8037
303.23 K, 2252 kPa, x1 = 0.6589	0.8412
303.23 K, 2454.7 kPa, x1 = 0.2958	0.7378
303.23 K, 2551.4 kPa, x1 = 0.3826	0.7516
303.23 K, 2892.7 kPa, x1 = 0.7326	0.8004
303.23 K, 2954.5 kPa, x1 = 0.448	0.7169
303.23 K, 3079.5 kPa, x1 = 0.6589	0.7688
303.23 K, 3848.9 kPa, x1 = 0.7326	0.7119
303.23 K, 4005.3 kPa, x1 = 0.6589	0.6684
323.44 K, 159 kPa, x1 = 0.5714	0.9902
323.44 K, 237 kPa, x1 = 0.5714	0.9864
323.44 K, 254.6 kPa, x1 = 0.745	0.9868
323.44 K, 352.4 kPa, x1 = 0.5714	0.9806
323.44 K, 378.8 kPa, x1 = 0.745	0.9812
323.44 K, 522.4 kPa, x1 = 0.5714	0.9714
323.44 K, 561.8 kPa, x1 = 0.745	0.9727
323.44 K, 770.4 kPa, x1 = 0.5714	0.9577
323.44 K, 829.3 kPa, x1 = 0.745	0.9598
323.44 K, 1128 kPa, x1 = 0.5714	0.9372
323.44 K, 1215.8 kPa, x1 = 0.745	0.9406
323.44 K, 1633.3 kPa, x1 = 0.5714	0.9071
323.44 K, 1764.2 kPa, x1 = 0.745	0.9123
323.44 K, 2325.6 kPa, x1 = 0.5714	0.8633
323.44 K, 2519.5 kPa, x1 = 0.745	0.8708
323.44 K, 3228.5 kPa, x1 = 0.5714	0.8011
323.44 K, 3513.7 kPa, x1 = 0.745	0.8117
323.44 K, 4726.6 kPa, x1 = 0.745	0.7299
323.45 K, 119.4 kPa, x1 = 0.4108	0.9909
323.45 K, 128.6 kPa, x1 = 0.3236	0.9894
323.45 K, 141.9 kPa, x1 = 0.2465	0.9883
323.45 K, 178 kPa, x1 = 0.4108	0.9879
323.45 K, 191.7 kPa, x1 = 0.3236	0.986
323.45 K, 211.5 kPa, x1 = 0.2465	0.984
323.45 K, 265 kPa, x1 = 0.4108	0.9831
323.45 K, 285.1 kPa, x1 = 0.3236	0.9802
323.45 K, 314.1 kPa, x1 = 0.2465	0.9771
323.45 K, 393.4 kPa, x1 = 0.4108	0.9754
323.45 K, 422.8 kPa, x1 = 0.3236	0.9714
323.45 K, 464.8 kPa, x1 = 0.2465	0.9664
323.45 K, 581.5 kPa, x1 = 0.4108	0.9636
323.45 K, 623.6 kPa, x1 = 0.3236	0.9578
323.45 K, 683.5 kPa, x1 = 0.2465	0.9499
323.45 K, 854.1 kPa, x1 = 0.4108	0.946
323.45 K, 912.9 kPa, x1 = 0.3236	0.9372
323.45 K, 996.3 kPa, x1 = 0.2465	0.9254
323.45 K, 1242.3 kPa, x1 = 0.4108	0.9198
323.45 K, 1321.6 kPa, x1 = 0.3236	0.9069
323.45 K, 1433.4 kPa, x1 = 0.2465	0.8899
323.45 K, 1781.4 kPa, x1 = 0.4108	0.8816
323.45 K, 1881.4 kPa, x1 = 0.3236	0.8629
323.45 K, 2021.2 kPa, x1 = 0.2465	0.8388
323.45 K, 2499.7 kPa, x1 = 0.4108	0.8269
323.45 K, 2610.3 kPa, x1 = 0.3236	0.8003
343.77 K, 139.1 kPa, x1 = 0.2266	0.9898
